Measured values as given in patent publication US20220024851A1, “CRYSTALLINE FORMS OF MULTICYCLIC COMPOUNDS AND USES THEREOF” (Convelo Therapeutics, Inc., priority 2018, published 2022).
Structures can show the parent of a compound that is named as a salt.

Columns and labels:
Format in all cases: physicochemical
[1] = Dynamic vapor sorption (DVS) / hygroscopicity; details: for Desorption, hysteresis and form change after moisture sorption-desorption: moisture sorption-desorption cycles, XRPD
Procedure: The crystalline forms provided can be additionally characterized by dynamic vapor sorption (DVS), wherein a sample is subjected to varying conditions of humidity and temperature, and the response of the sample is measured gravimetrically. The result of a DVS analysis particularly can be a dual curve providing sample weight percent as a function of relative humidity (RH) over time, a dual curve providing sample water content as a function of RH over time, a curve providing weight percent in relation to RH, or a curve providing water content in relation to RH. Equipment useful for measuring such data is known in the art, and any such equipment can be used to measure the compounds according to the present invention. In certain embodiments, DVS analysis can be carried out by scanning at a series of specific RH values. Thus, specific crystalline forms according to the invention may be identified and described in relation to the representative graph and/or the approximate peaks obtained in DVS analysis, particularly scanning from 0% to 95% RH with a step interval of 5% or 10% RH.
Hygroscopicities of the materials described in the present disclosure are classified according to Table 1
DVS data were collected on a VTI SGA-100 Vapor Sorption Analyzer. NaCl and PVP were used as calibration standards. Samples were not dried prior to analysis. Sorption and desorption data were collected over a range from 5% to 95% RH at 10% RH increments under a nitrogen purge. The equilibrium criterion used for analysis was less than 0.0100% weight change in 5 minutes with a maximum equilibration time of 3 hours. Data were not corrected for the initial moisture content of the samples.

[2] = Thermogravimetric analysis (TGA), thermal decomposition; details: for Decomposition onset: TGA, heated under nitrogen
Procedure: TGA is a method of thermal gravimetric analysis in which changes in physical and chemical properties of a material are measured as a function of increasing temperature (with constant heating rate) or as a function of time (with constant temperature and/or constant mass loss). TGA can provide information about physical phenomena, such as second-order phase transitions, or about chemical phenomena, such as desolvation and/or decomposition.
TG analyses described herein were performed using a Mettler Toledo TGA/DSC3+ analyzer. Balance check was performed using calcium oxalate, and temperature calibration was performed using indium, tin, and zinc. The sample was placed in an aluminum pan. The sample was sealed, the lid pierced, then inserted into the TG furnace. The furnace was heated under nitrogen.

[3] = Aqueous kinetic solubility by aliquot addition method; details: water; for solubility kinetic / Kinetic Solubility: ambient temperature, visual dissolution
Source text: Generated solids were typically observed by polarized light microscopy and, if crystalline (i.e. display birefringence and extinction), analyzed by XRPD. The XRPD patterns were compared to each other and to available reference patterns of salt formers. If unique by XRPD, the materials were further analyzed by ^1H NMR, TGA, DSC, and DVS. Kinetic solubilities of selected materials were estimated by aliquot addition method. Equilibrium solubilities were estimated gravimetrically using supernatants from suspensions equilibrated at ambient temperature for approximately 7-10 days.
Weighed samples of material were treated with aliquots of water at ambient temperature. Samples were typically sonicated between additions to facilitate dissolution. Complete dissolution was observed through visual inspection. Solubilities were calculated based on the total amount of solvent added to achieve complete dissolution and may be greater than the value reported due to incremental solvent addition and the inherent kinetics of dissolution. If dissolution was not observed, values are reported as “less than”. If complete dissolution was observed upon the first aliquot of solvent, values are reported as “greater than”.
Kinetic solubility was estimated by aliquot addition method, and dissolution was judged by visual observations. If dissolution was not observed, values are reported as “less than.” If complete dissolution was observed upon the first aliquot of solvent, values are reported as “greater than.” Kinetic solubility of selected salts is presented in Table 8.

[4] = upon increase of RH / entire RH range

For `CCN(C/C=C\c1ccc(C2CCCCC2)c(Cl)c1)C1CCCCC1.O=S(=O)(O)CCS(=O)(=O)O` [Edisylate salt, Edisylate Salt of Cis-N-cyclohexyl-N-ethyl-3-(3-chloro-4-cyclohexylphenyl)prop-2-enylamine], the DVS weight gain ([1]; 5-75% RH) was “about 0.35%”, the DVS weight gain ([1]; 75-95% RH) was “about 18.55%” and the Hygroscopicity ([1]; above 75% RH) was “significant hygroscopicity and deliquesces”. The Hygroscopicity ([1]; below 75% RH) was “non-hygroscopic”, the “Desorption, hysteresis and form change after moisture sorption-desorption” value (“Desorption, hysteresis and form change” below) [1] was “form change to a highly disordered material” and the Decomposition onset [2] was 260 °C.

With `CCN(C/C=C\c1ccc(C2CCCCC2)c(Cl)c1)C1CCCCC1.CCS(=O)(=O)O` [Esylate salt, Esylate Salt of Cis-N-cyclohexyl-N-ethyl-3-(3-chloro-4-cyclohexylphenyl)prop-2-enylamine] the DVS weight gain ([1]; 5-85% RH) was “about 0.35%”, the DVS weight gain ([1]; 5 to 95% RH) was “about 0.9 wt %” and the DVS weight gain ([1]; 85-95% RH) was 0.51%. For the same molecule, the “Desorption, hysteresis and form change” value [1] was “complete desorption without hysteresis or form change”, the Hygroscopicity [1, 4] was “limited hygroscopicity” and the Decomposition onset [2] was 268 °C. The solubility kinetic [3] was 30000 µg/mL and the “fold more soluble than all other crystalline salts isolated (kinetic solubility)” value ([3]; vs other crystalline salts) was “more than 30 fold”.

In the case of `CCN(C/C=C\c1ccc(C2CCCCC2)c(Cl)c1)C1CCCCC1` [Salicylate salt, Salicylate Salt of Cis-N-cyclohexyl-N-ethyl-3-(3-chloro-4-cyclohexylphenyl)prop-2-enylamine], the DVS weight gain ([1]; 5-95% RH) is reported as “about 0.04%”, the DVS weight gain ([1]; 5 to 95% RH) is reported as “about 0.04 wt %” and the Hygroscopicity [1, 4] is reported as “non-hygroscopic”. For the same molecule, the Hygroscopicity ([1]; upon increase of RH / entire RH range, listed as salicylate) was “lack of hygroscopicity”, the Thermal stability [2] was “thermally stable” and the Decomposition onset [2] was 212 °C. It also gave a solubility kinetic [3] of less than 1000 µg/mL.

In the case of `CCN(C/C=C\c1ccc(C2CCCCC2)c(Cl)c1)C1CCCCC1.O=C(O)c1ccc2ccccc2c1O` [Xinafoate salt, Xinafoate Salt of Cis-N-cyclohexyl-N-ethyl-3-(3-chloro-4-cyclohexylphenyl)prop-2-enylamine], the DVS weight gain ([1]; 5-85% RH) is reported as “about 0.88%”, the DVS weight gain ([1]; 85-95% RH) is reported as “about 0.85%” and the Hygroscopicity ([1]; above 65% RH) is reported as “limited hygroscopicity”. The Hygroscopicity ([1]; below 65% RH) was “non-hygroscopic”, the “Desorption, hysteresis and form change” value [1] was “A form change is suggested” and the Decomposition onset [2] was 146 °C.

In the case of `CCN(C/C=C\c1ccc(C2CCCCC2)c(Cl)c1)C1CCCCC1.O=S(=O)(O)c1ccccc1` [Besylate salt, Besylate Salt of Cis-N-cyclohexyl-N-ethyl-3-(3-chloro-4-cyclohexylphenyl)prop-2-enylamine], the DVS weight gain ([1]; 5-85% RH) is reported as “about 0.88%”, the DVS weight gain ([1]; 85-95% RH) is reported as “about 0.85%” and the “Desorption, hysteresis and form change” value [1] is reported as “complete desorption without form change and with almost no hysteresis”. The Hygroscopicity [1, 4] was “limited hygroscopicity”, the Decomposition onset [2] was 274 °C and the “Kinetic Solubility” value [3] was less than 600 µg/mL. For the same molecule, the “Kinetic Solubility” value ([3]; listed as Besylate slat) was less than 1000 µg/mL.
